Data from patent publication US8268865B2, “Quaternary alkyl ammonium bacterial efflux pump inhibitors and therapeutic uses thereof” (Rempex Pharmaceuticals, Inc., priority 2007, dated 2012).
Where two headings read alike, the source gives them in different places.

How the values were obtained:
[1] = Rat serum pharmacokinetics after 1.5-hour IV infusion; format: in vivo; details: for clearance: read-out: Clearance (free drug clearance) (converted)
Description: In the experiment depicted in Table 2, rat serum pharmacokinetics of compounds selected inhibitor compounds was evaluated after 1.5-hour IV infusion of 1.5 ml solution of corresponding efflux pump inhibitor in 0.9% saline. Depending on the concentration used the total infused dose was 10 or 20 mg/kg. A two-compartment model was used to fit the data and calculate PK parameters.

[2] = system: P. aeruginosa strain PAM1723 overexpressing MexAB-OprM; assay: Checkerboard assay: potentiation of in vitro antibacterial activity of levofloxacin by efflux pump inhibitors; format: cell-based; details: for MPC8: lowest inhibitor concentration giving antibacterial activity with levofloxacin at 1/8 of its MIC; for MPC8 / MPC32: PAM1723, MHB, 20 h at 35° C.; for MPC32: lowest inhibitor concentration giving antibacterial activity with levofloxacin at 1/32 of its MIC
Description: EPI activity was recorded as concentration of an EPI compound that is necessary to increase susceptibility to levofloxacin of the strain of P. aeruginosa, PAM1723, overexpressing the MexAB-OprM efflux pump eight-fold. The levofloxacin potentiating activity of the test compounds was assessed by the checkerboard assay (Antimicrobial Combinations, Antibiotics in Laboratory Medicine, Ed. Victor Lorian, M.D., Fourth edition, 1996, pp 333-338, which is incorporated herein by reference in its entirety) using a broth microdilution method performed as recommended by the NCCLS (National Committee for Clinical Laboratory Standards (NCCLS), 1997, Methods for Dilution of Antimicrobial Susceptibility Tests for Bacteria That Grow Aerobically, Fourth Edition; Approved Standard. NCCLS Document M7-A4, Vol 17 No. 2, which is incorporated herein by reference in its entirety). In this assay, multiple dilutions of two drugs, namely an EPI and levofloxacin, were tested, alone and in combination, at concentrations equal to, above and below their respective minimal inhibitory concentrations (MICs). All EPI compounds were readily soluble in water and stock solutions were prepared at a final concentration of 10 mg/ml. Stock solutions were further diluted, according to the needs of the particular assay, in Mueller Hinton Broth (MHB). Stock solution was stored at −80° C.
The checkerboard assay was performed in microtiter plates. Levofloxacin was diluted in the x-axis, each column containing a single concentration of levofloxacin. EPIs were diluted in the y-axis, each row containing a single concentration of an EPI. The result of these manipulations was that each well of the microtiter plate contained a unique combination of concentrations of the two agents. The assay was performed in MHB with a final bacterial inoculum of 5×105 CFU/ml (from an early-log phase culture). Microtiter plates were incubated during 20 h at 35° C. and were read using a microtiterplate reader (Molecular Devices) at 650 nm as well as visual observation using a microtiter plate-reading mirror.
In the experiment depicted in Table 1, potentiating activities of selected inhibitors are reported as Minimum Potentiating Concentration MPC8 values (or MPC32) which correspond to the lowest concentration of the inhibitor required to achieve antibacterial activity in combination with the concentration of levofloxacin equal to ⅛ (or 1/32) of the levofloxacin concentration required to achieve the same antibacterial effect alone (MIC of levofloxacin).

[3] = rat serum, 1.5-hour IV infusion, dose 20 mg/kg, two-compartment model
[4] = rat serum, 1.5-hour IV infusion, dose 10 mg/kg, two-compartment model
[5] = rat serum, 1.5-hour IV infusion, dose 10 mg/kg, read-out: Cmax
[6] = rat, IV infusion, comparison among compounds of Table 2
[7] = rat serum, 1.5-hour IV infusion, dose 20 mg/kg, read-out: Cmax

Compound: 3-{2-[(4S)-1-N,1-N-bis(2-azaniumylethyl)-4-(N-methylformamido)-1-N-(prop-2-en-1-yl)butane-1,4-bis(aminium)]-3-[4-(trifluoromethyl)phenyl]propanamido}quinolin-1-ium pentachloride [Compound 92]
- Cmax ([1]; rat serum, 1.5-hour IV infusion, dose 20 mg/kg): 18300 ng/mL
- Clearance (free drug clearance) [1, 3]: 26.5 mL/min/kg
- MPC8 [2]: 0.312 µg/mL
- MPC32 [2]: 0.625 µg/mL

Compound: Mixture of 3-[(2S,3R)-2-[(4S)-1-N,1-N-bis(2-azaniumylethyl)-4-formamido-1-N-methylbutane-1,4-bis(aminium)]-3-hydroxy-3-[4-(trifluoromethyl)phenyl]propanamido]quinolin-1-ium pentachloride 15a and 3-[(2R,3S)-2-[(4S)-1-N,1-N-bis(2-azaniumylethyl)-4-formamido-1-N-methylbutane-1,4-bis(aminium)]-3-hydroxy-3-[4-(trifluoromethyl)phenyl]propanamido]quinolin-1-ium pentachloride 15b [Compound 15]
- MPC8 [2]: 0.312 µg/mL
- MPC32 [2]: 0.625 µg/mL

Compound: C[N+](C)(CCN)CCC[C@H](N)C(=O)N[C@H](CCc1ccccc1)C(=O)Nc1cnc2ccccc2c1 [Compound 4, 3-[(2S)-2-[(4R)-1-N-(2-azaniumylethyl)-4-formamido-1-N,1-N-dimethylbutane-1,4-bis(aminium)]-4-phenylbutanamido]quinolin-1-ium tetrachloride]
- clearance [1, 4]: 21.5 mL/min/kg
- Cmax [1, 5]: 13400 ng/mL

Compound: C[N+](CCN)(CCN)CCC[C@H](N)C(=O)N[C@H](Cc1ccc(C(F)(F)F)cc1)C(=O)Nc1cnc2ccccc2c1 [Compound 10, 3-[(2R)-2-[(4S)-1-N,1-N-bis(2-azaniumylethyl)-4-formamido-1-N-methylbutane-1,4-bis(aminium)]-3-[4-(trifluoromethyl)phenyl]propanamido]quinolin-1-ium pentachloride]
- clearance [1, 4]: 5.17 mL/min/kg
- Cmax [1, 5]: 30600 ng/mL
- free drug clearance (in words) [1, 6]: lowest free drug clearance
- serum PK profile (in words) [1, 6]: best serum PK profiles
- efflux pump inhibitory activity (in words) ([2]; comparison among tested compounds): one of the best efflux pump inhibitory activities

Compound: 3-[(2R)-2-[(4S)-1-N,1-N-bis(2-azaniumylethyl)-4-formamido-1-N-methylbutane-1,4-bis(aminium)]-4-phenylbutanamido]-1-{[4-(trifluoromethyl)phenyl]methyl}quinolin-1-ium pentachloride [Compound 53]
- MPC8 [2]: 2.5 µg/mL
- MPC32 [2]: 5 µg/mL

Compound: C[N+](CCN)(CCN)CCC[C@H](N)C(=O)N[C@@H](CCc1ccccc1)C(=O)Nc1cnc2ccccc2c1.Cl.Cl.[Cl-] [Compound 29, 3-[(2S)-2-[(4S)-1-N,1-N-bis(2-azaniumylethyl)-4-formamido-1-N-methylbutane-1,4-bis(aminium)]-4-phenylbutanamido]quinolin-1-ium pentachloride]
- clearance [1, 4]: 14.2 mL/min/kg
- Cmax [1, 5]: 25600 ng/mL

Compound: C[C@@H](N)C(=O)N[C@@H](CCC[N+](C)(CCN)CCN)C(=O)N[C@@H](Cc1ccc(C(F)(F)F)cc1)C(=O)Nc1cnc2ccccc2c1 [Compound 44, 3-[(2S)-2-[(4S)—N,N-bis(2-azaniumylethyl)-4-formamido-4-[(1R)-1-formamidoethan-1-aminium]-N-methylbutan-1-aminium]-3-[4-(trifluoromethyl)phenyl]propanamido]quinolin-1-ium pentachloride]
- clearance [1, 3]: 10.8 mL/min/kg
- Cmax [1, 7]: 40200 ng/mL
- serum PK profile (in words) [1, 6]: best serum PK profiles

Compound: C[N+](CCN)(CCN)CCC[C@H](N)C(=O)N[C@@H](Cc1ccc(C(F)(F)F)cc1)C(=O)Nc1cnc2ccccc2c1 [Compound 11, 3-[(2R)-2-[(4R)-1-N,1-N-bis(2-azaniumylethyl)-4-formamido-1-N-methylbutane-1,4-bis(aminium)]-3-[4-(trifluoromethyl)phenyl]propanamido]quinolin-1-ium pentachloride]
- clearance [1, 4]: 47.8 mL/min/kg
- Cmax [1, 5]: 7300 ng/mL

Compound: C[N+](CCN)(CCN)CCC[C@H](N)C(=O)N[C@H](CCc1ccccc1)C(=O)Nc1cnc2ccccc2c1 [Compound 27, 3-[(2R)-2-[(4S)-1-N,1-N-bis(2-azaniumylethyl)-4-formamido-1-N-methylbutane-1,4-bis(aminium)]-4-phenylbutanamido]quinolin-1-ium pentachloride]
- clearance [1, 3]: 5.83 mL/min/kg
- Cmax [1, 7]: 54600 ng/mL
- serum PK profile (in words) [1, 6]: best serum PK profiles

Compound: C[N+](C)(CCN)CCC[C@H](N)C(=O)N[C@H](CCc1ccccc1)C(=O)Nc1ccc(F)c(F)c1F [Compound 5, [(4S)-4-azaniumyl-4-{[(1R)-3-phenyl-1-[(2,3,4-trifluorophenyl)carbamoyl]propyl]carbamoyl}butyl](2-azaniumylethyl)dimethylazanium trichloride]
- clearance [1, 3]: 20.5 mL/min/kg
- Cmax [1, 7]: 19600 ng/mL

Compound: C[N+](CCN)(CCN)CCC[C@H](N)C(=O)N[C@H](CCc1ccc(C(F)(F)F)cc1)C(=O)Nc1cnc2ccccc2c1 [Compound 33, 3-[(2R)-2-[(4S)-1-N,1-N-bis(2-azaniumylethyl)-4-formamido-1-N-methylbutane-1,4-bis(aminium)]-4-[4-(trifluoromethyl)phenyl]butanamido]quinolin-1-ium pentachloride]
- clearance [1, 3]: 16.7 mL/min/kg
- Cmax [1, 7]: 63000 ng/mL

Compound: C[N+](CCN)(CCN)CCC[C@H](N)C(=O)N[C@@H](CC1CCCCC1)C(=O)Nc1cnc2ccccc2c1.Cl.Cl.Cl.Cl.[Cl-] [Compound 25, 3-[(2S)-2-[(4S)-1-N,1-N-bis(2-azaniumylethyl)-4-formamido-1-N-methylbutane-1,4-bis(aminium)]-3-cyclohexylpropanamido]quinolin-1-ium pentachloride]
- clearance [1, 4]: 16.7 mL/min/kg
- Cmax [1, 5]: 13000 ng/mL
